From BindingDB's records for doi:10.1016/j.bmcl.2004.04.096 (Cv Therapeutics, 2004)
Each block holds one compound with its values, some of them ahead of it.

Columns and labels:
[1] = biological target: T1, Adenosine receptor A1 (Cavia porcellus, UniProt P47745); experiment: Binding affinity against adenosine A1 receptor using [3H]CPX in guinea pig DDT membrane; 287+/-125
T1 sequence (P47745 whole entry): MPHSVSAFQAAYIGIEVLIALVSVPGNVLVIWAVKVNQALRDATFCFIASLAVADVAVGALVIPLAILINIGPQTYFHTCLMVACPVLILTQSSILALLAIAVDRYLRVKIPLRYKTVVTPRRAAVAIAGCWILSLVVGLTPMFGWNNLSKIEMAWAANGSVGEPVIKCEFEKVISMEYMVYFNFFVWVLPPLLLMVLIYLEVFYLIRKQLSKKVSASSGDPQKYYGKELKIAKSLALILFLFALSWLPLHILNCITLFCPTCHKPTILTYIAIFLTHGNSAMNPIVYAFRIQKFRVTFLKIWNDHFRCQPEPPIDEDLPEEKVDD

[2] = biological target: T1, Adenosine receptor A1; experiment: Binding affinity against adenosine A1 receptor using [3H]CPX in guinea pig DDT membrane; 614+/-78
[3] = biological target: T1, Adenosine receptor A1; experiment: Binding affinity against adenosine A1 receptor using [3H]CPX in guinea pig DDT membrane; 354+/-113
[4] = biological target: T1, Adenosine receptor A1; experiment: Binding affinity against adenosine A1 receptor using [3H]CPX in guinea pig DDT membrane; 1666+/-556
[5] = biological target: T1, Adenosine receptor A1; experiment: Binding affinity against adenosine A1 receptor using [3H]CPX in guinea pig DDT membrane; 5855+/-1208
[6] = biological target: T1, Adenosine receptor A1; experiment: Binding affinity against adenosine A1 receptor using [3H]CPX in guinea pig DDT membrane; 604+/-241
[7] = biological target: T1, Adenosine receptor A1; experiment: Binding affinity against adenosine A1 receptor using [3H]CPX in guinea pig DDT membrane
[8] = biological target: T1, Adenosine receptor A1; experiment: Binding affinity against adenosine A1 receptor using [3H]CPX in guinea pig DDT membrane; 343+/-137
[9] = biological target: T1, Adenosine receptor A1; experiment: Binding affinity against adenosine A1 receptor using [3H]CPX in guinea pig DDT membrane; 158+/-21
[10] = biological target: T1, Adenosine receptor A1; experiment: Binding affinity against adenosine A1 receptor using [3H]-CPX in guinea pig DDT membrane; 4191+/-922
[11] = biological target: T1, Adenosine receptor A1; experiment: Binding affinity against adenosine A1 receptor using [3H]CPX in guinea pig DDT membrane; 5497+/-180
[12] = biological target: T1, Adenosine receptor A1; experiment: Binding affinity against adenosine A1 receptor using [3H]CPX in guinea pig DDT membrane; 7292+/-3241
[13] = biological target: T1, Adenosine receptor A1; experiment: Binding affinity against adenosine A1 receptor using [3H]CPX in guinea pig DDT membrane; 1571+/-245
[14] = biological target: T1, Adenosine receptor A1; experiment: Binding affinity against adenosine A1 receptor using [3H]CPX in guinea pig DDT membrane; 503+/-262
[15] = biological target: T1, Adenosine receptor A1; experiment: Binding affinity against adenosine A1 receptor using [3H]CPX in guinea pig DDT membrane; 338+/-98
[16] = biological target: T1, Adenosine receptor A1; experiment: Binding affinity against adenosine A1 receptor using [3H]CPX in guinea pig DDT membrane; 166+/-75
[17] = biological target: T1, Adenosine receptor A1; experiment: Binding affinity against adenosine A1 receptor using [3H]CPX in guinea pig DDT membrane; 1143+/-426
[18] = biological target: T1, Adenosine receptor A1; experiment: Binding affinity against adenosine A1 receptor using [3H]CPX in guinea pig DDT membrane; 117+/-46
[19] = biological target: T1, Adenosine receptor A1; experiment: Binding affinity against adenosine A1 receptor using [3H]CPX in guinea pig DDT membrane; 400+/-38
[20] = biological target: T1, Adenosine receptor A1; experiment: Binding affinity against adenosine A1 receptor using [3H]CPX in guinea pig DDT membrane; 6250+/-1767
[21] = biological target: T1, Adenosine receptor A1; experiment: Binding affinity against adenosine A1 receptor using [3H]CPX in guinea pig DDT membrane; 913+/-517
[22] = biological target: T1, Adenosine receptor A1; experiment: Binding affinity against adenosine A1 receptor using [3H]CPX in guinea pig DDT membrane; 473+/-329
[23] = biological target: T1, Adenosine receptor A1; experiment: Binding affinity against adenosine A1 receptor using [3H]CPX in guinea pig DDT membrane; 1773+/-209
[24] = biological target: T1, Adenosine receptor A1; experiment: Binding affinity against adenosine A1 receptor using [3H]CPX in guinea pig DDT membrane; 894+/-659
[25] = biological target: T1, Adenosine receptor A1; experiment: Binding affinity against adenosine A1 receptor using [3H]CPX in guinea pig DDT membrane; 506+/-111
[26] = biological target: T1, Adenosine receptor A1; experiment: Binding affinity against adenosine A1 receptor using [3H]CPX in guinea pig DDT membrane; 1945+/-1316

Ki [1]: 287 nM
Structure (SMILES): O[C@@H]1[C@@H](CSc2ccccc2F)OC(n2cnc3c(NC4CCCC4)ncnc32)[C@@H]1O (stereo partly specified)

Ki [2]: 614 nM
Structure (SMILES): O[C@@H]1[C@@H](CSc2c(Cl)cccc2Cl)OC(n2cnc3c(NC4CCOC4)ncnc32)[C@@H]1O (stereo partly specified)

Ki [3]: 354 nM
Structure (SMILES): COc1ccc2sc(SC[C@H]3OC(n4cnc5c(NC6CCCC6)ncnc54)[C@H](O)[C@@H]3O)nc2c1 (stereo partly specified)

Ki [4]: 1670 nM
Structure (SMILES): COc1ccc2nc(SC[C@H]3OC(n4cnc5c(NC6CCCC6)ncnc54)[C@H](O)[C@@H]3O)sc2c1 (stereo partly specified)

Ki [5]: 5850 nM
Structure (SMILES): Cc1cccc(C)c1SC[C@H]1OC(n2cnc3c(NC4CCOC4)ncnc32)[C@H](O)[C@@H]1O (stereo partly specified)

Ki [6]: 604 nM
Structure (SMILES): O[C@@H]1[C@@H](COc2cccc(F)c2)OC(n2cnc3c(NC4CCOC4)ncnc32)[C@@H]1O (stereo partly specified)

Ki [7]: 1340 nM
Structure (SMILES): Cn1ccnc1SC[C@H]1OC(n2cnc3c(NC4CCCC4)ncnc32)[C@H](O)[C@@H]1O (stereo partly specified)

Ki [8]: 343 nM
Structure (SMILES): O[C@@H]1[C@@H](COc2ccc(F)cc2)OC(n2cnc3c(NC4CCOC4)ncnc32)[C@@H]1O (stereo partly specified)

Ki [7]: > 5000 nM
Structure (SMILES): Cc1csc(SC[C@H]2OC(n3cnc4c(NC5CCOC5)ncnc43)[C@H](O)[C@@H]2O)n1 (stereo partly specified)

Ki [9]: 158 nM
Structure (SMILES): O[C@@H]1[C@@H](CSc2nccs2)OC(n2cnc3c(NC4CCOC4)ncnc32)[C@@H]1O (stereo partly specified)

Ki [7]: 4390 nM
Structure (SMILES): O[C@@H]1[C@@H](COc2ccccc2F)OC(n2cnc3c(NC4CCCC4)ncnc32)[C@@H]1O (stereo partly specified)

Ki [7]: 192 nM
Structure (SMILES): Cc1cc(COC[C@H]2OC(n3cnc4c(NC5CCOC5)ncnc43)[C@H](O)[C@@H]2O)no1 (stereo partly specified)

Ki [10]: 4190 nM
Structure (SMILES): Cn1ccnc1SC[C@H]1OC(n2cnc3c(NC4CCOC4)ncnc32)[C@H](O)[C@@H]1O (stereo partly specified)

Ki [11]: 5500 nM | Ki [7]: 494 nM
Structure (SMILES): O[C@@H]1[C@H](O)[C@@H](CSc2ccc(F)cc2F)O[C@H]1n1cnc2c(NC3CCOC3)ncnc21 (stereo partly specified)

Ki [12]: 7290 nM
Structure (SMILES): Cc1cccc(Cl)c1SC[C@H]1OC(n2cnc3c(NC4CCOC4)ncnc32)[C@H](O)[C@@H]1O (stereo partly specified)

Ki [13]: 1570 nM
Structure (SMILES): O[C@@H]1[C@@H](CSc2cccc(F)c2)OC(n2cnc3c(NC4CCOC4)ncnc32)[C@@H]1O (stereo partly specified)

Ki [14]: 503 nM
Structure (SMILES): Cc1ccccc1OC[C@H]1OC(n2cnc3c(NC4CCOC4)ncnc32)[C@H](O)[C@@H]1O (stereo partly specified)

Ki [7]: 165 nM
Structure (SMILES): O[C@@H]1[C@@H](COCc2ccccc2)OC(n2cnc3c(NC4CCOC4)ncnc32)[C@@H]1O (stereo partly specified)

Ki [15]: 338 nM
Structure (SMILES): O[C@@H]1[C@@H](CSc2ccccc2Cl)OC(n2cnc3c(NC4CCOC4)ncnc32)[C@@H]1O (stereo partly specified)

Ki [16]: 166 nM
Structure (SMILES): O[C@@H]1[C@@H](CSc2nccs2)OC(n2cnc3c(NC4CCCC4)ncnc32)[C@@H]1O (stereo partly specified)

Ki [17]: 1140 nM
Structure (SMILES): Cc1ccccc1SC[C@H]1OC(n2cnc3c(NC4CCOC4)ncnc32)[C@H](O)[C@@H]1O (stereo partly specified)

Ki [18]: 117 nM
Structure (SMILES): O[C@@H]1[C@@H](COc2ccccc2F)OC(n2cnc3c(NC4CCOC4)ncnc32)[C@@H]1O (stereo partly specified)

Ki [19]: 400 nM
Structure (SMILES): O[C@@H]1[C@@H](CSc2nc3ccccc3s2)OC(n2cnc3c(NC4CCOC4)ncnc32)[C@@H]1O (stereo partly specified)

Ki [20]: 6250 nM
Structure (SMILES): O[C@@H]1[C@@H](CSc2ccccc2C(F)(F)F)OC(n2cnc3c(NC4CCOC4)ncnc32)[C@@H]1O (stereo partly specified)

Ki [21]: 913 nM
Structure (SMILES): O[C@@H]1[C@@H](CSc2ncccn2)OC(n2cnc3c(NC4CCOC4)ncnc32)[C@@H]1O (stereo partly specified)

Ki [22]: 473 nM
Structure (SMILES): O[C@@H]1[C@@H](COc2ccccc2Cl)OC(n2cnc3c(NC4CCOC4)ncnc32)[C@@H]1O (stereo partly specified)

Ki [23]: 1770 nM
Structure (SMILES): O[C@@H]1[C@@H](CSc2nc3ccccc3s2)OC(n2cnc3c(NC4CCCC4)ncnc32)[C@@H]1O (stereo partly specified)

Ki [24]: 894 nM
Structure (SMILES): O[C@@H]1[C@@H](CSc2ccccn2)OC(n2cnc3c(NC4CCOC4)ncnc32)[C@@H]1O (stereo partly specified)

Ki [25]: 506 nM
Structure (SMILES): O[C@@H]1[C@H](O)[C@@H](CSc2ccccc2F)O[C@H]1n1cnc2c(NC3CCOC3)ncnc21 (stereo partly drawn) [N6-Tetrahydrofuranyl-9H-[5-deoxy-5-(2-fluorophenylthio)-beta-D-ribofuranosyl]adenine]

Ki [26]: 1940 nM
Structure (SMILES): O[C@@H]1[C@@H](CSc2nc3ccc(Cl)cc3o2)OC(n2cnc3c(NC4CCOC4)ncnc32)[C@@H]1O (stereo partly specified)
